Test system: leukemia cells from eight other ALL patients
Experiment: Dasatinib cell viability (MTS assay), primary cells of other ALL subsets
Format: cell-based
Settings: Homo sapiens, 72 h; eight other ALL samples; highest tested concentration 1000 nM; 3 days

IC50: > 1 µM
Compound: Cc1nc(Nc2ncc(C(=O)Nc3c(C)cccc3Cl)s2)cc(N2CCN(CCO)CC2)n1 [dasatinib]

Source: patent publication US20130131139A1, “ROR1 AS A GENE TARGET IN ACUTE LYMPHOBLASTIC LEUKEMIA” (Oregon Health & Science University, priority 2011, published 2013)
